Tested on: 855422-203-R-J1-PDC complex spheroid growth
Assay: Anticancer human tumor 855422-203-R-J1-PDC patient-derived bladder carcinoma cell line growth inhibition [AhR]
Conditions: for IC50: curve of first compound; for viability, T/C: stronger effect = lower value; active = viability on the fitted dose curve at most 10% of control; inactive = the rest
Text: Multicellular complex tumor spheroid response to aryl hydrocarbon receptor antagonists in combination with a variety of drugs and investigational agents in selected tumor cell lines
The current study was undertaken to assess response to aryl hydrocarbon receptor antagonists in combination with standard-of-care drugs and investigational agents in solid tumor complex spheroid models. Complex spheroids include a stromal component modeled by human endothelial cells (HUVEC) and fibroblasts modeled by human mesenchymal stem cells (MSCs). The concentration ranges selected for each drug and investigational agent were based upon clinically achievable concentrations if the clinical Cmax of the agent was known.
Compounds. The drugs and investigational agents: BAY 2416964 (NSC825713), GNF351 (NSC835774), CH-223191 (NSC835775), CPI-455 (NSC825282), aza-TdCyd (NSC777586), decitabine (NSC127716), belinostat (NSC758774), entinostat (NSC756642), pevonedistat (NSC761192), tazemetostat (NSC777109), talazoparib (NSC765396), olaparib (NSC753686), selinexor (NSC780203), nedisertib (M3814, NSC802822), bortezomib (NSC756655), venetoclax (NSC766270), doxorubicin (NSC123127), elimusertib (BAY189344, NSC800525), ceralasertib (AZD6738, NSC777638), TAK-243 (NSC785004), alisertib (NSC759677), etoposide (NSC141540), topotecan (NSC609699), eribulin (NSC707389), gemcitabine (NSC613327), carboplatin (NSC241240), cisplatin (NSC119875), and SN-38 (NSC673596) were obtained from the National Cancer Institute (NCI) Developmental Therapeutics Program Chemical Repository (32). The FDA-approved anticancer drug set is available from the Developmental Therapeutics Program at https://dtp.cancer.gov/organization/dscb/obtaining/available plates.htm. […] The stock solutions were prepared in dimethyl sulfoxide (DMSO, Sigma-Aldrich, St. Louis, MO, cat. D2650), except for the platinum compounds which were prepared in saline (Quality Biological, Gaithersburg, MD, cat. 114-055-101), at 800-fold the tested concentration and stored at -70 degrees C prior to their use. All drugs and investigational agents were tested over a range starting from a high concentration at or near the clinical Cmax and decreasing in half-log increments. If the clinical Cmax for an agent had not been determined, the highest concentration tested was 10 microM (Table 1).
Cell Culture. All cells were maintained in an incubator at 37 degrees C and 5% CO2 with 95% humidity. The PDC lines were cultured according to standard operating procedures established by the NCI PDMR (https://pdmr.cancer.gov). Briefly, all PDCs were thawed and cultured in Matrigel-coated flasks prepared with a working solution of 1X Ham's F-12 nutrient mix, without supplementation (Invitrogen, Waltham, MA, cat. 11765054), 100 U/mL penicillin-streptomycin (Invitrogen, cat. 15140122), and 2.5% Matrigel (Corning Inc., Corning, NY, cat. 354248) for the first three passages. All PDCs were cultured in complete DMEM/F-12 media containing advanced DMEM/F-12 (Invitrogen, cat. 12634028), 4.9% defined fetal bovine serum, heat inactivated (HyClone Laboratories Inc., Logan, UT, cat. SH30070.03HI), 389 ng/mL hydrocortisone (Sigma-Aldrich, cat. H4001), 9.7 ng/mL human EGF recombinant protein (Invitrogen, cat. PHG0313), 23.4 microg/mL adenine (Sigma-Aldrich, cat. A2786), 97.3 U/mL penicillin-streptomycin (Invitrogen, cat. 15140122), 1.9 mM L-glutamine (Invitrogen, cat. 25030081), and 9.7 microM Y-27632 dihydrochloride (Tocris Bioscience, Bristol, United Kingdom, cat. 1254). The PDCs were cultured in complete DMEM/F12 media without 10 microM Y-27632 dihydrochloride for at least two passages prior to the screen. The established cell lines NCI-H1341 and […] were cultured in DMEM/F-12, HEPES (Invitrogen, cat. 11330032), 5% defined fetal bovine serum (HyClone Laboratories Inc., cat. SH30070.03), ITS premix universal culture supplement [insulin (5 microg/mL), transferrin (5 microg/mL), and selenious acid (5 ng/mL)] […]

[1] = second compound 0.1 µM, first compound 0.0316 µM
[2] = second compound 0.1 µM, first compound 0.1 µM
[3] = second compound 0.1 µM, first compound 0.316 µM
[4] = second compound 0.1 µM, first compound 1 µM
[5] = second compound 0.1 µM, first compound 3.16 µM
[6] = second compound 0.1 µM, first compound 10 µM
[7] = second compound 0.316 µM, first compound 0.0316 µM
[8] = second compound 0.316 µM, first compound 0.1 µM
[9] = second compound 0.316 µM, first compound 0.316 µM
[10] = second compound 0.316 µM, first compound 1 µM
[11] = second compound 0.316 µM, first compound 3.16 µM
[12] = second compound 0.316 µM, first compound 10 µM
[13] = second compound 1 µM, first compound 0.0316 µM
[14] = second compound 1 µM, first compound 0.1 µM
[15] = second compound 1 µM, first compound 0.316 µM
[16] = second compound 1 µM, first compound 1 µM
[17] = second compound 1 µM, first compound 3.16 µM
[18] = second compound 1 µM, first compound 10 µM
[19] = second compound 3.16 µM, first compound 0.0316 µM
[20] = second compound 3.16 µM, first compound 0.1 µM
[21] = second compound 3.16 µM, first compound 0.316 µM
[22] = second compound 3.16 µM, first compound 1 µM
[23] = second compound 3.16 µM, first compound 3.16 µM
[24] = second compound 3.16 µM, first compound 10 µM
[25] = second compound 10 µM, first compound 0.0316 µM
[26] = second compound 10 µM, first compound 0.1 µM
[27] = second compound 10 µM, first compound 0.316 µM
[28] = second compound 10 µM, first compound 1 µM
[29] = second compound 10 µM, first compound 3.16 µM
[30] = second compound 10 µM, first compound 10 µM
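Note: spheroids exposed to agents for seven days before readout.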
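Throughout, for viability, T/C: percent of DMSO vehicle control luminescence viability.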

CC(C)CC(NC(=O)C(Cc1ccccc1)NC(=O)c1cnccn1)B(O)O (stereo not given) + CC(CO)NC(=O)c1cc(-c2ccc(Cl)cc2)nn(-c2cnn(C)c2)c1=O
1.83 nM: IC50 (second compound 0.1 µM)
1.55 nM: IC50 (second compound 3.16 µM)
inactive: viability, T/C (second compound 0.1 µM, first compound 0.000949 µM) 115% | viability, T/C (second compound 0.316 µM, first compound 0.000949 µM) 113% | viability, T/C (second compound 1 µM, first compound 0.000949 µM) 111% | viability, T/C (second compound 3.16 µM, first compound 0.000949 µM) 86.3% | viability, T/C (second compound 10 µM, first compound 0.000949 µM) 76.3%
1.82 nM: IC50 (second compound 0.316 µM)
active: viability, T/C (second compound 0.1 µM, first compound 0.003 µM) 0.93% | viability, T/C (second compound 0.1 µM, first compound 0.00949 µM) 0.37% | viability, T/C (second compound 0.1 µM, first compound 0.03 µM) 0.65% | viability, T/C (second compound 0.1 µM, first compound 0.0949 µM) 0.65% | viability, T/C (second compound 0.1 µM, first compound 0.3 µM) 0.89% | viability, T/C (second compound 0.316 µM, first compound 0.003 µM) 1.18% | viability, T/C (second compound 0.316 µM, first compound 0.00949 µM) 0.04% | viability, T/C (second compound 0.316 µM, first compound 0.03 µM) 0.01% | viability, T/C (second compound 0.316 µM, first compound 0.0949 µM) 0.02% | viability, T/C (second compound 0.316 µM, first compound 0.3 µM) 0.12% | viability, T/C (second compound 1 µM, first compound 0.003 µM) 0.73% | viability, T/C (second compound 1 µM, first compound 0.00949 µM) 0.02% | viability, T/C (second compound 1 µM, first compound 0.03 µM) 0.22% | viability, T/C (second compound 1 µM, first compound 0.0949 µM) 0.02% | viability, T/C (second compound 1 µM, first compound 0.3 µM) 0.11% | viability, T/C (second compound 3.16 µM, first compound 0.003 µM) 0.7% | viability, T/C (second compound 3.16 µM, first compound 0.00949 µM) 2.8% | viability, T/C (second compound 3.16 µM, first compound 0.03 µM) 0.03% | viability, T/C (second compound 3.16 µM, first compound 0.0949 µM) 0.14% | viability, T/C (second compound 3.16 µM, first compound 0.3 µM) 0.14% | viability, T/C (second compound 10 µM, first compound 0.003 µM) 1% | viability, T/C (second compound 10 µM, first compound 0.00949 µM) 0.16% | viability, T/C (second compound 10 µM, first compound 0.03 µM) 0.18% | viability, T/C (second compound 10 µM, first compound 0.0949 µM) 0.14% | viability, T/C (second compound 10 µM, first compound 0.3 µM) 0.2%
1.79 nM: IC50 (second compound 1 µM)
1.42 nM: IC50 (second compound 10 µM)

Nc1ccccc1NC(=O)c1ccc(CNC(=O)OCc2cccnc2)cc1 + CC(CO)NC(=O)c1cc(-c2ccc(Cl)cc2)nn(-c2cnn(C)c2)c1=O
active: viability, T/C [24] 9.66% | viability, T/C [30] 8.41%
3890 nM: IC50 (second compound 0.1 µM)
2870 nM: IC50 (second compound 3.16 µM)
3100 nM: IC50 (second compound 10 µM)
4130 nM: IC50 (second compound 1 µM)
inactive: viability, T/C [1] 94.2% | viability, T/C [2] 91.2% | viability, T/C [3] 92% | viability, T/C [4] 89.5% | viability, T/C [5] 57.9% | viability, T/C [6] 14.4% | viability, T/C [7] 92.2% | viability, T/C [8] 91.6% | viability, T/C [9] 90.1% | viability, T/C [10] 89.2% | viability, T/C [11] 60.7% | viability, T/C [12] 11.2% | viability, T/C [13] 95.2% | viability, T/C [14] 91.8% | viability, T/C [15] 91.7% | viability, T/C [16] 88.7% | viability, T/C [17] 61.5% | viability, T/C [18] 11.7% | viability, T/C [19] 94% | viability, T/C [20] 94.5% | viability, T/C [21] 86.6% | viability, T/C [22] 77.2% | viability, T/C [23] 47.2% | viability, T/C [25] 88.9% | viability, T/C [26] 92.6% | viability, T/C [27] 88.5% | viability, T/C [28] 74.2% | viability, T/C [29] 50.2%
4060 nM: IC50 (second compound 0.316 µM)

O=C(C=Cc1cccc(S(=O)(=O)Nc2ccccc2)c1)NO + CC(CO)NC(=O)c1cc(-c2ccc(Cl)cc2)nn(-c2cnn(C)c2)c1=O
2150 nM: IC50 (second compound 0.1 µM)
1970 nM: IC50 (second compound 0.316 µM)
1540 nM: IC50 (second compound 3.16 µM)
inactive: viability, T/C [1] 87.4% | viability, T/C [2] 88.6% | viability, T/C [3] 91.1% | viability, T/C [4] 71.7% | viability, T/C [5] 38.5% | viability, T/C [7] 89.1% | viability, T/C [8] 88.2% | viability, T/C [9] 92.7% | viability, T/C [10] 70.6% | viability, T/C [11] 34.7% | viability, T/C [13] 93.7% | viability, T/C [14] 87.8% | viability, T/C [15] 86.6% | viability, T/C [16] 79.8% | viability, T/C [17] 31.7% | viability, T/C [19] 83.2% | viability, T/C [20] 86.8% | viability, T/C [21] 90.7% | viability, T/C [22] 60.3% | viability, T/C [23] 27.9% | viability, T/C [25] 87.2% | viability, T/C [26] 90.3% | viability, T/C [27] 79.4% | viability, T/C [28] 67.3% | viability, T/C [29] 31.8%
2030 nM: IC50 (second compound 1 µM)
active: viability, T/C [6] 1.42% | viability, T/C [12] 0.82% | viability, T/C [18] 0.88% | viability, T/C [24] 0.71% | viability, T/C [30] 0.94%
1730 nM: IC50 (second compound 10 µM)
